From US20160375050A1, “METHODS AND COMPOSITIONS INVOLVING CHITOSAN NANOPARTICLES” (The Board of Regents of the University of Texas System, priority 2007, published 2016)

How the values were obtained:
[1] = tested on: EZH2 promoter in EAhy926 endothelial cell line; assay: EZH2 promoter luciferase reporter assay; format: cell-based, human; details: EAhy926, 6 hours, EGF 25 ng/mL, VEGF 50 ng/mL
Method: Relative activity of the EZH2 promoter in the EAhy926 cell line was determined by luciferase reporter assay. Cells were transfected in low-serum medium (0.5% serum) with the firefly luciferase plasmid, either empty vector (pGL3-Basic) or the EZH2 promoter construct vector (EZH2prom-pGL3-Basic), in 12-well plates using Effectene® Transfection Reagent from Qiagen (Valencia, Calif.). Cells were then maintained in low-serum medium for 18 hours, washed in warm 1× phosphate-buffered saline (PBS), and treated in triplicate at 37° C. for 6 hours. Treatments included recombinant human (rh) EGF (EGF; 25 ng/mL; Invitrogen) and rhVEGF165 (VEGF; 50 ng/mL; Peprotech, Rocky Hill, N.J.), each in fresh medium plus 0.5% serum, fresh complete medium plus 10% serum, and conditioned media from immortalized ovarian surface epithelium (105E120) and from papillary serous ovarian cancer cell lines (OVCA420 and SKOV3). Medium in control wells (pGL3-Basic transfectants) was not changed on the day of treatment. Following treatment, cells were washed briefly in cold 1×PBS and lysates were collected and processed using the Dual-Luciferase® Reporter Assay System (Promega Corp.). Firefly luciferase readings were averaged and normalized to pGL3-Basic control readings for percent fold changes.

VASH1 mRNA in MOEC = assay: VASH1 mRNA after EZH2 gene silencing, real-time qRT-PCR; format: cell-based, mouse; details: 72 hours after transfection
Method: Relative expression of EZH2 and VASH1 mRNA in HUVEC and MOEC cells was determined by real-time quantitative RT-PCR. Cells were seeded at 1.0×10^4 cells per well in 96-well plates in complete medium and incubated at 37° C. for 24 hours, and then in low-serum medium (0.5% serum) for 18 hours, minus EGF and VEGF supplements where appropriate. After washing with warm PBS, cells were treated in triplicate at 37° C. for six hours with EGF (25 ng/mL) and VEGF (50 ng/mL), each in fresh medium (lacking supplemental EGF or VEGF) with no serum, fresh complete medium plus 2% serum, and conditioned media. Relative expression of VASH1 mRNA in MOEC cells was determined by transfecting cells with EZH2 mouse siRNA. Samples were collected after 72 hours of transfection. Real-time quantitative RT-PCR was performed using 50 ng total RNA isolated from treated cells using the RNeasy Mini Kit (Qiagen). Relative expression values were obtained using the average of three reference genes and the 2^−ΔΔCT method as described previously, and normalized to control for percent fold changes (Donninger et al., 2004).

| Substance | EZH2 promoter activity [1] | increase in VASH1 mRNA compared to control siRNA treated cells (VASH1 mRNA in MOEC) [fold] |
| --- | --- | --- |
| VEGF | significant increase | – |
| EGF: recombinant human EGF, Invitrogen (NSDSECPLSHDGYCLHDGVCMYIEALDKYACNCVVGYIGERCQYRDLKWWELR; Epidermal growth factor; UniProt P01133 971-1023, looked up) | significant increase | – |
| mouse EZH2 siRNA: Murine EZH2 siRNA, target 5′-GCACAAGTCATCCCGTTAATT-3′ (SEQ ID NO: 15), transfected in vitro (target site or template, no part of the molecule; listed as DNA, chemistry not given here) | – | 2.8 |
